System: K86415-001-R-J1-PDC complex spheroids, viability
Assay: Anticancer human tumor K86415-001-R-J1-PDC patient-derived lung adenocarcinoma cell line growth inhibition [RAS]
Settings: for IC50: curve of first compound; for viability, T/C: stronger effect = lower value
How it was run: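 Tumour cells grown as complex spheroids with HUVEC endothelial cells and mesenchymal stem cells, treated with RAS pathway inhibitor combinations. Each agent spans half-log steps from near clinical Cmax, or 10 microM where Cmax is unknown.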

[1] = second compound 0.0316 µM, first compound 0.00316 µM
[2] = second compound 0.0316 µM, first compound 0.01 µM
[3] = second compound 0.0316 µM, first compound 0.0316 µM
[4] = second compound 0.0316 µM, first compound 0.1 µM
[5] = second compound 0.0316 µM, first compound 0.316 µM
[6] = second compound 0.0316 µM, first compound 1 µM
[7] = second compound 0.1 µM, first compound 0.00316 µM
[8] = second compound 0.1 µM, first compound 0.01 µM
[9] = second compound 0.1 µM, first compound 0.0316 µM
[10] = second compound 0.1 µM, first compound 0.1 µM
[11] = second compound 0.1 µM, first compound 0.316 µM
[12] = second compound 0.1 µM, first compound 1 µM
[13] = second compound 0.316 µM, first compound 0.00316 µM
[14] = second compound 0.316 µM, first compound 0.01 µM
[15] = second compound 0.316 µM, first compound 0.0316 µM
[16] = second compound 0.316 µM, first compound 0.1 µM
[17] = second compound 0.316 µM, first compound 0.316 µM
[18] = second compound 0.316 µM, first compound 1 µM
[19] = second compound 1 µM, first compound 0.00316 µM
[20] = second compound 1 µM, first compound 0.01 µM
[21] = second compound 1 µM, first compound 0.0316 µM
[22] = second compound 1 µM, first compound 0.1 µM
[23] = second compound 1 µM, first compound 0.316 µM
[24] = second compound 1 µM, first compound 1 µM
[25] = second compound 0.0316 µM, first compound 0.000949 µM
[26] = second compound 0.0316 µM, first compound 0.003 µM
[27] = second compound 0.0316 µM, first compound 0.00949 µM
[28] = second compound 0.0316 µM, first compound 0.03 µM
[29] = second compound 0.0316 µM, first compound 0.0949 µM
[30] = second compound 0.0316 µM, first compound 0.3 µM
[31] = second compound 0.1 µM, first compound 0.000949 µM
[32] = second compound 0.1 µM, first compound 0.003 µM
[33] = second compound 0.1 µM, first compound 0.00949 µM
[34] = second compound 0.1 µM, first compound 0.03 µM
[35] = second compound 0.1 µM, first compound 0.0949 µM
[36] = second compound 0.1 µM, first compound 0.3 µM
[37] = second compound 0.316 µM, first compound 0.000949 µM
[38] = second compound 0.316 µM, first compound 0.003 µM
[39] = second compound 0.316 µM, first compound 0.00949 µM
[40] = second compound 0.316 µM, first compound 0.03 µM
[41] = second compound 0.316 µM, first compound 0.0949 µM
[42] = second compound 0.316 µM, first compound 0.3 µM
[43] = second compound 1 µM, first compound 0.000949 µM
[44] = second compound 1 µM, first compound 0.003 µM
[45] = second compound 1 µM, first compound 0.00949 µM
[46] = second compound 1 µM, first compound 0.03 µM
[47] = second compound 1 µM, first compound 0.0949 µM
[48] = second compound 1 µM, first compound 0.3 µM
[49] = second compound 3.16 µM, first compound 0.000949 µM
[50] = second compound 3.16 µM, first compound 0.003 µM
[51] = second compound 3.16 µM, first compound 0.00949 µM
[52] = second compound 3.16 µM, first compound 0.03 µM
[53] = second compound 3.16 µM, first compound 0.0949 µM
[54] = second compound 3.16 µM, first compound 0.3 µM
[55] = second compound 10 µM, first compound 0.000949 µM
[56] = second compound 10 µM, first compound 0.003 µM
[57] = second compound 10 µM, first compound 0.00949 µM
[58] = second compound 10 µM, first compound 0.03 µM
[59] = second compound 10 µM, first compound 0.0949 µM
[60] = second compound 10 µM, first compound 0.3 µM
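Further: spheroids exposed to agents for seven days before readout.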

## C=CC(=O)N1CCN(c2nc(OCC3CCCN3C)nc3c(F)c(-c4nc(N)cc(C)c4C(F)(F)F)c(Cl)cc23)C(C)C1 (stereo not drawn) + C#Cc1c(F)ccc2cc(O)cc(-c3ncc4c(N5CC6CCC(C5)N6)nc(OCC56CCCN5CC(F)C6)nc4c3F)c12
Second compound 0.0316 µM
  IC50: < 3.16 nM
Second compound 0.1 µM
  IC50: < 3.16 nM
Second compound 0.316 µM
  IC50: < 3.16 nM
Second compound 1 µM
  IC50: < 3.16 nM
Second compound 3.16 µM
  IC50: < 3.16 nM
Second compound 10 µM
  IC50: < 3.16 nM
[1]
  viability, T/C: 18.2%
[2]
  viability, T/C: 12.5%
[3]
  viability, T/C: 11.4%
[4]
  viability, T/C: 11.2%
[5]
  viability, T/C: 8.99%
[6]
  viability, T/C: 12%
[7]
  viability, T/C: 19.5%
[8]
  viability, T/C: 12.3%
[9]
  viability, T/C: 11.3%
[10]
  viability, T/C: 10.5%
[11]
  viability, T/C: 7.88%
[12]
  viability, T/C: 11%
[13]
  viability, T/C: 19.9%
[14]
  viability, T/C: 11.8%
[15]
  viability, T/C: 8.76%
[16]
  viability, T/C: 12.1%
[17]
  viability, T/C: 9.15%
[18]
  viability, T/C: 9.63%
[19]
  viability, T/C: 18.6%
[20]
  viability, T/C: 13.6%
[21]
  viability, T/C: 13.2%
[22]
  viability, T/C: 8.99%
[23]
  viability, T/C: 10.1%
[24]
  viability, T/C: 10.7%
Second compound 3.16 µM, first compound 0.00316 µM
  viability, T/C: 19.5%
Second compound 3.16 µM, first compound 0.01 µM
  viability, T/C: 13.4%
Second compound 3.16 µM, first compound 0.0316 µM
  viability, T/C: 9.24%
Second compound 3.16 µM, first compound 0.1 µM
  viability, T/C: 9.62%
Second compound 3.16 µM, first compound 0.316 µM
  viability, T/C: 9.96%
Second compound 3.16 µM, first compound 1 µM
  viability, T/C: 9.83%
Second compound 10 µM, first compound 0.00316 µM
  viability, T/C: 11.9%
Second compound 10 µM, first compound 0.01 µM
  viability, T/C: 12.9%
Second compound 10 µM, first compound 0.0316 µM
  viability, T/C: 10.9%
Second compound 10 µM, first compound 0.1 µM
  viability, T/C: 9.94%
Second compound 10 µM, first compound 0.316 µM
  viability, T/C: 10.1%
Second compound 10 µM, first compound 1 µM
  viability, T/C: 9.54%

## CC1(C)CCC(Nc2ncc(C(F)(F)F)c(-c3c[nH]c4c(P(C)(C)=O)c(C#N)ccc34)n2)CN1 (stereo not drawn) + C#Cc1c(F)ccc2cc(O)cc(-c3ncc4c(N5CC6CCC(C5)N6)nc(OCC56CCCN5CC(F)C6)nc4c3F)c12
Second compound 0.0316 µM
  IC50: 300 nM
Second compound 0.1 µM
  IC50: > 300 nM
Second compound 0.316 µM
  IC50: 300 nM
Second compound 1 µM
  IC50: > 300 nM
Second compound 3.16 µM
  IC50: > 300 nM
Second compound 10 µM
  IC50: < 0.949 nM
[25]
  viability, T/C: 103%
[26]
  viability, T/C: 131%
[27]
  viability, T/C: 75.3%
[28]
  viability, T/C: 59.8%
[29]
  viability, T/C: 56.6%
[30]
  viability, T/C: 55.5%
[31]
  viability, T/C: 103%
[32]
  viability, T/C: 118%
[33]
  viability, T/C: 77.3%
[34]
  viability, T/C: 62%
[35]
  viability, T/C: 57.4%
[36]
  viability, T/C: 61%
[37]
  viability, T/C: 101%
[38]
  viability, T/C: 119%
[39]
  viability, T/C: 78.3%
[40]
  viability, T/C: 60.4%
[41]
  viability, T/C: 62.8%
[42]
  viability, T/C: 61.9%
[43]
  viability, T/C: 78.5%
[44]
  viability, T/C: 103%
[45]
  viability, T/C: 76.5%
[46]
  viability, T/C: 57.4%
[47]
  viability, T/C: 60.6%
[48]
  viability, T/C: 65.5%
[49]
  viability, T/C: 39.1%
[50]
  viability, T/C: 64.3%
[51]
  viability, T/C: 60.5%
[52]
  viability, T/C: 49.5%
[53]
  viability, T/C: 47.9%
[54]
  viability, T/C: 55.8%
[55]
  viability, T/C: 19%
[56]
  viability, T/C: 22%
[57]
  viability, T/C: 26.7%
[58]
  viability, T/C: 29.1%
[59]
  viability, T/C: 33.6%
[60]
  viability, T/C: 34.3%

## CCc1c2c(nc3ccc(O)cc13)-c1cc3c(c(=O)n1C2)COC(=O)[C@]3(O)CC + C#Cc1c(F)ccc2cc(O)cc(-c3ncc4c(N5CC6CCC(C5)N6)nc(OCC56CCCN5CC(F)C6)nc4c3F)c12
Second compound 0.0316 µM
  IC50: 2.54 nM
Second compound 0.1 µM
  IC50: 2.62 nM
Second compound 0.316 µM
  IC50: 2.35 nM
Second compound 1 µM
  IC50: 1.79 nM
Second compound 3.16 µM
  IC50: < 0.949 nM
Second compound 10 µM
  IC50: < 0.949 nM
[25]
  viability, T/C: 93.6%
[26]
  viability, T/C: 41.2%
[27]
  viability, T/C: 21.4%
[28]
  viability, T/C: 17%
[29]
  viability, T/C: 10.5%
[30]
  viability, T/C: 5.25%
[31]
  viability, T/C: 85%
[32]
  viability, T/C: 44.7%
[33]
  viability, T/C: 24.1%
[34]
  viability, T/C: 14%
[35]
  viability, T/C: 9.47%
[36]
  viability, T/C: 5.05%
[37]
  viability, T/C: 80.7%
[38]
  viability, T/C: 40.4%
[39]
  viability, T/C: 23.9%
[40]
  viability, T/C: 15.6%
[41]
  viability, T/C: 11.5%
[42]
  viability, T/C: 5.49%
[43]
  viability, T/C: 69.1%
[44]
  viability, T/C: 34.6%
[45]
  viability, T/C: 17.2%
[46]
  viability, T/C: 13.6%
[47]
  viability, T/C: 10.5%
[48]
  viability, T/C: 6.31%
[49]
  viability, T/C: 46%
[50]
  viability, T/C: 33.3%
[51]
  viability, T/C: 22.5%
[52]
  viability, T/C: 15.5%
[53]
  viability, T/C: 13.9%
[54]
  viability, T/C: 6.66%
[55]
  viability, T/C: 17%
[56]
  viability, T/C: 12.8%
[57]
  viability, T/C: 16.1%
[58]
  viability, T/C: 18.1%
[59]
  viability, T/C: 14.2%
[60]
  viability, T/C: 6.63%

## C=CC(=O)Nc1cc(Nc2nccc(-c3cn(C)c4ccccc34)n2)c(OC)cc1N(C)CCN(C)C + C=CC(=O)N1CCN(c2nc(OCC3CCCN3C)nc3c(F)c(-c4nc(N)cc(C)c4C(F)(F)F)c(Cl)cc23)C(C)C1
Second compound 0.00316 µM
  IC50: < 3.16 nM
Second compound 0.01 µM
  IC50: < 3.16 nM
Second compound 0.0316 µM
  IC50: < 3.16 nM
Second compound 0.1 µM
  IC50: < 3.16 nM
Second compound 0.316 µM
  IC50: < 3.16 nM
Second compound 1 µM
  IC50: < 3.16 nM
Second compound 0.00316 µM, first compound 0.00316 µM
  viability, T/C: 19.7%
Second compound 0.00316 µM, first compound 0.01 µM
  viability, T/C: 17.1%
Second compound 0.00316 µM, first compound 0.0316 µM
  viability, T/C: 15.6%
Second compound 0.00316 µM, first compound 0.1 µM
  viability, T/C: 13.2%
Second compound 0.00316 µM, first compound 0.316 µM
  viability, T/C: 8.17%
Second compound 0.00316 µM, first compound 1 µM
  viability, T/C: 7.25%
Second compound 0.01 µM, first compound 0.00316 µM
  viability, T/C: 11.2%
Second compound 0.01 µM, first compound 0.01 µM
  viability, T/C: 10.3%
Second compound 0.01 µM, first compound 0.0316 µM
  viability, T/C: 11%
Second compound 0.01 µM, first compound 0.1 µM
  viability, T/C: 8.19%
Second compound 0.01 µM, first compound 0.316 µM
  viability, T/C: 6.56%
Second compound 0.01 µM, first compound 1 µM
  viability, T/C: 6.11%
[1]
  viability, T/C: 10.1%
[2]
  viability, T/C: 11.4%
[3]
  viability, T/C: 8.27%
[4]
  viability, T/C: 6%
[5]
  viability, T/C: 5.17%
[6]
  viability, T/C: 5.86%
[7]
  viability, T/C: 10%
[8]
  viability, T/C: 9.55%
[9]
  viability, T/C: 8.9%
[10]
  viability, T/C: 7.91%
[11]
  viability, T/C: 5.85%
[12]
  viability, T/C: 5.65%
[13]
  viability, T/C: 8.48%
[14]
  viability, T/C: 10.5%
[15]
  viability, T/C: 11.3%
[16]
  viability, T/C: 6.83%
[17]
  viability, T/C: 5.85%
[18]
  viability, T/C: 5.41%
[19]
  viability, T/C: 11%
[20]
  viability, T/C: 10.2%
[21]
  viability, T/C: 7.67%
[22]
  viability, T/C: 8.2%
[23]
  viability, T/C: 7.08%
[24]
  viability, T/C: 6.01%

Reference: PubChem BioAssay AID2060893 (Molecular Pharmacology Branch, DTP, NCI, 2025)
